From patent US20230085307A1, “PYRIDAZINONE COMPOUND AND HERBICIDE” (NISSAN CHEMICAL CORPORATION, priority 2019, published 2023)

Tests used:
barnyard grass [1] = assay: Test Example 3: herbicidal effect by foliage application, Wagner pot (Table 18, symbol H); type: in vivo, barnyard grass (Echinochloa crus-galli); conditions: for herbicidal effect on barnyard grass (H): 320 g/ha
In short: (§1)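 Plants were sown in alluvial soil held under 0.1–0.5 cm standing water and grown 14 days in a greenhouse at 25–30 °C. An emulsifiable formulation, water-diluted to the set dose, was then sprayed onto the foliage, and effects were scored three weeks later using previously defined criteria.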

Chinese sprangletop = assay: Test Example 3: herbicidal effect by foliage application, Wagner pot (Table 18, symbol D); type: in vivo, chinese sprangletop (Leptochloa chinensis); conditions: for herbicidal effect on Chinese sprangletop (D): 320 g/ha
In short: as §1

rice flat sedge = assay: Test Example 3: herbicidal effect by foliage application, Wagner pot (Table 18, symbol E); type: in vivo, rice flat sedge (Cyperus iria); conditions: for herbicidal effect on rice flat sedge (E): 320 g/ha
In short: as §1

southern crabgrass [2] = assay: Test Example 4: herbicidal effect by soil treatment (Table 19, symbol F); type: in vivo, southern crabgrass (Digitaria ciliaris); conditions: amount of applied herbicide 320 g/ha
In short: (§2)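 Pre-emergence style soil spray: seeds under ~1.5 cm sterilized diluvial soil received a uniform coat of emulsion diluted to the predetermined herbicide amount. Greenhouse 25–30° C; readout at week three on previously defined criteria.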

green foxtail [3] = assay: Test Example 4: herbicidal effect by soil treatment (Table 19, symbol G); type: in vivo, green foxtail (Setaria viridis); conditions: amount of applied herbicide 320 g/ha
In short: as §2

barnyard grass [4] = assay: Test Example 4: herbicidal effect by soil treatment (Table 19, symbol H); type: in vivo, barnyard grass (Echinochloa crus-galli); conditions: amount of applied herbicide 320 g/ha
In short: as §2

wild oat [5] = assay: Test Example 4: herbicidal effect by soil treatment (Table 19, symbol I); type: in vivo, wild oat (Avena fatua); conditions: amount of applied herbicide 320 g/ha
In short: as §2

blackgrass [6] = assay: Test Example 4: herbicidal effect by soil treatment (Table 19, symbol J); type: in vivo, blackgrass (Alopecurus myosuroides); conditions: amount of applied herbicide 320 g/ha
In short: as §2

Italian ryegrass [7] = assay: Test Example 4: herbicidal effect by soil treatment (Table 19, symbol K); type: in vivo, Italian ryegrass (Lolium multiflorum); conditions: amount of applied herbicide 320 g/ha
In short: as §2

windgrass [8] = assay: Test Example 4: herbicidal effect by soil treatment (Table 19, symbol L); type: in vivo, windgrass (Apera spica-venti); conditions: amount of applied herbicide 320 g/ha
In short: as §2

velvetleaf [9] = assay: Test Example 4: herbicidal effect by soil treatment (Table 19, symbol M); type: in vivo, velvetleaf (Abutilon theophrasti); conditions: amount of applied herbicide 320 g/ha
In short: as §2

redroot pigweed [10] = assay: Test Example 4: herbicidal effect by soil treatment (Table 19, symbol N); type: in vivo, redroot pigweed (Amaranthus retroflexus); conditions: amount of applied herbicide 320 g/ha
In short: as §2

lambsquarters [11] = assay: Test Example 4: herbicidal effect by soil treatment (Table 19, symbol O); type: in vivo, lambsquarters (Chenopodium album); conditions: amount of applied herbicide 320 g/ha
In short: as §2

chickweed [12] = assay: Test Example 4: herbicidal effect by soil treatment (Table 19, symbol P); type: in vivo, common chickweed (Stellaria media); conditions: amount of applied herbicide 320 g/ha
In short: as §2

persian speedwell [13] = assay: Test Example 4: herbicidal effect by soil treatment (Table 19, symbol R); type: in vivo, Persian speedwell (Veronica persica); conditions: amount of applied herbicide 320 g/ha
In short: as §2

southern crabgrass [14] = assay: Test Example 5: herbicidal effect by foliage application, plastic box (Table 20, symbol F); type: in vivo, southern crabgrass (Digitaria ciliaris); conditions: foliage application, 320 g/ha, three weeks after application
In short: (§3)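 Plants were sown into sterilized diluvial soil under about 1.5 cm cover and kept in a greenhouse at 25° C. to 30° C. Fourteen days on, foliage received an even spray of the diluted emulsion. Herbicidal or crop effect was judged three weeks afterwards.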

green foxtail [15] = assay: Test Example 5: herbicidal effect by foliage application, plastic box (Table 20, symbol G); type: in vivo, green foxtail (Setaria viridis); conditions: foliage application, 320 g/ha, three weeks after application
In short: as §3

barnyard grass [16] = assay: Test Example 5: herbicidal effect by foliage application, plastic box (Table 20, symbol H); type: in vivo, barnyard grass (Echinochloa crus-galli); conditions: foliage application, 320 g/ha, three weeks after application
In short: as §3

wild oat [17] = assay: Test Example 5: herbicidal effect by foliage application, plastic box (Table 20, symbol I); type: in vivo, wild oat (Avena fatua); conditions: foliage application, 320 g/ha, three weeks after application
In short: as §3

blackgrass [18] = assay: Test Example 5: herbicidal effect by foliage application, plastic box (Table 20, symbol J); type: in vivo, blackgrass (Alopecurus myosuroides); conditions: foliage application, 320 g/ha, three weeks after application
In short: as §3

Italian ryegrass [19] = assay: Test Example 5: herbicidal effect by foliage application, plastic box (Table 20, symbol K); type: in vivo, Italian ryegrass (Lolium multiflorum); conditions: foliage application, 320 g/ha, three weeks after application
In short: as §3

windgrass [20] = assay: Test Example 5: herbicidal effect by foliage application, plastic box (Table 20, symbol L); type: in vivo, windgrass (Apera spica-venti); conditions: foliage application, 320 g/ha, three weeks after application
In short: as §3

velvetleaf [21] = assay: Test Example 5: herbicidal effect by foliage application, plastic box (Table 20, symbol M); type: in vivo, velvetleaf (Abutilon theophrasti); conditions: foliage application, 320 g/ha, three weeks after application
In short: as §3

redroot pigweed [22] = assay: Test Example 5: herbicidal effect by foliage application, plastic box (Table 20, symbol N); type: in vivo, redroot pigweed (Amaranthus retroflexus); conditions: foliage application, 320 g/ha, three weeks after application
In short: as §3

lambsquarters [23] = assay: Test Example 5: herbicidal effect by foliage application, plastic box (Table 20, symbol O); type: in vivo, lambsquarters (Chenopodium album); conditions: foliage application, 320 g/ha, three weeks after application
In short: as §3

chickweed [24] = assay: Test Example 5: herbicidal effect by foliage application, plastic box (Table 20, symbol P); type: in vivo, common chickweed (Stellaria media); conditions: foliage application, 320 g/ha, three weeks after application
In short: as §3

persian speedwell [25] = assay: Test Example 5: herbicidal effect by foliage application, plastic box (Table 20, symbol R); type: in vivo, Persian speedwell (Veronica persica); conditions: foliage application, 320 g/ha, three weeks after application
In short: as §3

[26] = amount of applied herbicide 320 g/ha

SMILES | F: southern crabgrass, herbicidal effect grade (southern crabgrass [2]) | G: green foxtail, herbicidal effect grade (green foxtail [3]) | H: barnyard grass, herbicidal effect grade (barnyard grass [4]) | I: wild oat, herbicidal effect grade (wild oat [5]) | J: blackgrass, herbicidal effect grade (blackgrass [6]) | K: Italian ryegrass, herbicidal effect grade (Italian ryegrass [7]) | L: windgrass, herbicidal effect grade (windgrass [8]) | M: velvetleaf, herbicidal effect grade (velvetleaf [9]) | N: redroot pigweed, herbicidal effect grade (redroot pigweed [10]) | O: lambsquarters, herbicidal effect grade (lambsquarters [11]) | P: chickweed, herbicidal effect grade (chickweed [12]) | R: persian speedwell, herbicidal effect grade (persian speedwell [13]) | F: southern crabgrass, herbicidal effect grade (southern crabgrass [14]) | G: green foxtail, herbicidal effect grade (green foxtail [15]) | H: barnyard grass, herbicidal effect grade (barnyard grass [16]) | I: wild oat, herbicidal effect grade (wild oat [17]) | J: blackgrass, herbicidal effect grade (blackgrass [18]) | K: Italian ryegrass, herbicidal effect grade (Italian ryegrass [19]) | L: windgrass, herbicidal effect grade (windgrass [20]) | M: velvetleaf, herbicidal effect grade (velvetleaf [21]) | also measured
Cc1nn(C)c(=O)c(-c2c(-c3ccc(Cl)cc3)sc3cc(Cl)ccc23)c1O [3-033] | 0 (Herbicidal rate of 5% or less (almost no effect)) | 0 (Herbicidal rate of 5% or less (almost no effect)) | 0 (Herbicidal rate of 5% or less (almost no effect)) | 0 (Herbicidal rate of 5% or less (almost no effect)) | 0 (Herbicidal rate of 5% or less (almost no effect)) | 4 (Herbicidal rate of 70% or more and less than 90%) | 3 (Herbicidal rate of 40% or more and less than 70%) | 0 (Herbicidal rate of 5% or less (almost no effect)) | 4 (Herbicidal rate of 70% or more and less than 90%) | 3 (Herbicidal rate of 40% or more and less than 70%) | 2 (Herbicidal rate of 20% or more and less than 40%) | 3 (Herbicidal rate of 40% or more and less than 70%) | 3 (Herbicidal rate of 40% or more and less than 70%) | 5 (Herbicidal rate of 90% or more (almost completely withered)) | 4 (Herbicidal rate of 70% or more and less than 90%) | 4 (Herbicidal rate of 70% or more and less than 90%) | 4 (Herbicidal rate of 70% or more and less than 90%) | 4 (Herbicidal rate of 70% or more and less than 90%) | 4 (Herbicidal rate of 70% or more and less than 90%) | 4 (Herbicidal rate of 70% or more and less than 90%) | herbicidal effect on H: barnyard grass (barnyard grass [1]; [26]): 4 (Herbicidal rate of 70% or more and less than 90%); herbicidal effect on D: Chinese sprangletop (Chinese sprangletop; [26]): 3 (Herbicidal rate of 40% or more and less than 70%); herbicidal effect on E: rice flat sedge (rice flat sedge; [26]): 5 (Herbicidal rate of 90% or more (almost completely withered)); N: redroot pigweed, herbicidal effect grade (redroot pigweed [22]): 5 (Herbicidal rate of 90% or more (almost completely withered)); O: lambsquarters, herbicidal effect grade (lambsquarters [23]): 4 (Herbicidal rate of 70% or more and less than 90%); P: chickweed, herbicidal effect grade (chickweed [24]): 5 (Herbicidal rate of 90% or more (almost completely withered)); R: persian speedwell, herbicidal effect grade (persian speedwell [25]): 5 (Herbicidal rate of 90% or more (almost completely withered))
CCCC(=O)Oc1c(C)nn(C)c(=O)c1-c1c(-c2ccccc2OC)sc2cc(Cl)ccc12 [3-036] | 1 (Herbicidal rate of 5% or more and less than 20%) | 2 (Herbicidal rate of 20% or more and less than 40%) | 3 (Herbicidal rate of 40% or more and less than 70%) | 0 (Herbicidal rate of 5% or less (almost no effect)) | 0 (Herbicidal rate of 5% or less (almost no effect)) | 0 (Herbicidal rate of 5% or less (almost no effect)) | 3 (Herbicidal rate of 40% or more and less than 70%) | 2 (Herbicidal rate of 20% or more and less than 40%) | 5 (Herbicidal rate of 90% or more (almost completely withered)) | 3 (Herbicidal rate of 40% or more and less than 70%) | 3 (Herbicidal rate of 40% or more and less than 70%) | 3 (Herbicidal rate of 40% or more and less than 70%) | 1 (Herbicidal rate of 5% or more and less than 20%) | 3 (Herbicidal rate of 40% or more and less than 70%) | 5 (Herbicidal rate of 90% or more (almost completely withered)) | 1 (Herbicidal rate of 5% or more and less than 20%) | 0 (Herbicidal rate of 5% or less (almost no effect)) | 0 (Herbicidal rate of 5% or less (almost no effect)) | 0 (Herbicidal rate of 5% or less (almost no effect)) | 4 (Herbicidal rate of 70% or more and less than 90%) | herbicidal effect on barnyard grass (H) (barnyard grass [1]): 5 (Herbicidal rate of 90% or more (almost completely withered)); herbicidal effect on Chinese sprangletop (D) (Chinese sprangletop): 0 (Herbicidal rate of 5% or less (almost no effect)); herbicidal effect on rice flat sedge (E) (rice flat sedge): 4 (Herbicidal rate of 70% or more and less than 90%); N: redroot pigweed, herbicidal effect grade (redroot pigweed [22]): 5 (Herbicidal rate of 90% or more (almost completely withered)); O: lambsquarters, herbicidal effect grade (lambsquarters [23]): 3 (Herbicidal rate of 40% or more and less than 70%); P: chickweed, herbicidal effect grade (chickweed [24]): 5 (Herbicidal rate of 90% or more (almost completely withered)); R: persian speedwell, herbicidal effect grade (persian speedwell [25]): 5 (Herbicidal rate of 90% or more (almost completely withered))
COc1ccc(-c2sc3cc(Cl)ccc3c2-c2c(O)c(C)nn(C)c2=O)cc1 [3-037] | 0 (Herbicidal rate of 5% or less (almost no effect)) | 0 (Herbicidal rate of 5% or less (almost no effect)) | 0 (Herbicidal rate of 5% or less (almost no effect)) | 0 (Herbicidal rate of 5% or less (almost no effect)) | 0 (Herbicidal rate of 5% or less (almost no effect)) | 0 (Herbicidal rate of 5% or less (almost no effect)) | 0 (Herbicidal rate of 5% or less (almost no effect)) | 0 (Herbicidal rate of 5% or less (almost no effect)) | 0 (Herbicidal rate of 5% or less (almost no effect)) | 3 (Herbicidal rate of 40% or more and less than 70%) | 3 (Herbicidal rate of 40% or more and less than 70%) | 3 (Herbicidal rate of 40% or more and less than 70%) | 0 (Herbicidal rate of 5% or less (almost no effect)) | 0 (Herbicidal rate of 5% or less (almost no effect)) | 0 (Herbicidal rate of 5% or less (almost no effect)) | 0 (Herbicidal rate of 5% or less (almost no effect)) | 0 (Herbicidal rate of 5% or less (almost no effect)) | 0 (Herbicidal rate of 5% or less (almost no effect)) | 0 (Herbicidal rate of 5% or less (almost no effect)) | 5 (Herbicidal rate of 90% or more (almost completely withered)) | herbicidal effect on barnyard grass (H) (barnyard grass [1]): 4 (Herbicidal rate of 70% or more and less than 90%); herbicidal effect on Chinese sprangletop (D) (Chinese sprangletop): 3 (Herbicidal rate of 40% or more and less than 70%); herbicidal effect on rice flat sedge (E) (rice flat sedge): 4 (Herbicidal rate of 70% or more and less than 90%); N: redroot pigweed, herbicidal effect grade (redroot pigweed [22]): 5 (Herbicidal rate of 90% or more (almost completely withered)); O: lambsquarters, herbicidal effect grade (lambsquarters [23]): 4 (Herbicidal rate of 70% or more and less than 90%); P: chickweed, herbicidal effect grade (chickweed [24]): 5 (Herbicidal rate of 90% or more (almost completely withered)); R: persian speedwell, herbicidal effect grade (persian speedwell [25]): 5 (Herbicidal rate of 90% or more (almost completely withered))
